# Measured values taken from patent US7138361B2, “Herbicidal heterocycles” (E. I. du Pont de Nemours and Company, priority 2000, dated 2006).
# Key:
# Format in all cases: in vivo
# rice (Oryza saliva) = assay: Test C flooded paddy test; conditions: for Plant response rating, Rice: flooded paddy test, scale 0 to 100 (0 no effect, 100 complete control)
# Summary of the method: (§1)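 Greenhouse-maintained for 12 to 14 days after treatment, the paddy plants (2-leaf stage at application) were scored visually against controls. A score of 0 denotes no effect and a score of 100 denotes complete control.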
# [1] = tested on: smallflower flatsedge (Cyperus difformis); assay: Test C flooded paddy test; conditions: for Flatsedge plant response rating: Flooded Paddy, scale 0 to 100, 0 no effect, 100 complete control; for Plant response rating, Flatsedge: flooded paddy test, scale 0 to 100 (0 no effect, 100 complete control)
# Summary of the method: as §1
# [2] = tested on: Surinam grass (Brachiaria decumbens); assay: Test C postemergence
# Summary of the method: (§2)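 Plants held in greenhouse for 12–14 days post-application are scored by eye against controls on a 0–100 control scale. Application timing: preemergence on sown seed, or postemergence on 2–18 cm plants.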
# [3] = tested on: pigweed (Amaranthus retroflexus); assay: Test C postemergence
# Summary of the method: as §2
# soybean (Glycine max) = assay: Test C postemergence
# Summary of the method: as §2
# [4] = tested on: goosegrass (Eleusine indica); assay: Test C postemergence
# Summary of the method: as §2
# [5] = tested on: johnsongrass (Sorghum halepense); assay: Test C postemergence
# Summary of the method: as §2
# kochia (Kochia scoparia) = assay: Test C postemergence
# Summary of the method: as §2
# [6] = tested on: yellow nutsedge (Cyperus esculentus); assay: Test C postemergence
# Summary of the method: as §2
# [7] = tested on: morningglory (Ipomoea hederacea); assay: Test C postemergence
# Summary of the method: as §2
# [8] = tested on: crabgrass (Digitaria sanguinalis); assay: Test C postemergence
# Summary of the method: as §2
# [9] = tested on: lambsquarters (Chenopodium album); assay: Test C postemergence
# Summary of the method: as §2
# [10] = tested on: cocklebur (Xanthium strumarium); assay: Test C postemergence
# Summary of the method: as §2
# corn (Zea mays) = assay: Test C postemergence
# Summary of the method: as §2
# [11] = tested on: giant foxtail (Setaria faberii); assay: Test C postemergence
# Summary of the method: as §2
# [12] = tested on: woolly cupgrass (Eriochloa villosa); assay: Test C postemergence
# Summary of the method: as §2
# [13] = tested on: common ragweed (Ambrosia elatior); assay: Test C postemergence; conditions: Rate 500 g/ha, scale 0 to 100 (0 no effect, 100 complete control)
# Summary of the method: as §2
# [14] = tested on: bermudagrass (Cynodon dactylon); assay: Test C postemergence
# Summary of the method: as §2
# [15] = tested on: velvetleaf (Abutilon theophrasti); assay: Test C postemergence
# Summary of the method: as §2
# [16] = Rate 125 g/ha, scale 0 to 100, 0 no effect, 100 complete control
# [17] = Rate 250 g/ha, scale 0 to 100 (0 no effect, 100 complete control)
# [18] = Rate 500 g/ha, scale 0 to 100 (0 no effect, 100 complete control)
smiles,measurement,setting,value
COc1cc(N2CCC(n3ccc(C(C)(C)C)n3)C2=O)ccc1Cl (stereo not shown) [Compound 117],Rice plant response rating,"rice (Oryza saliva); Flooded Paddy, Rate 500 g/ha, scale 0 to 100, 0 no effect, 100 complete control",30
same,"Plant response rating, Rice",rice (Oryza saliva); Rate 62 g/ha,20
same,"Plant response rating, Rice",rice (Oryza saliva); Rate 125 g/ha,30
same,Flatsedge plant response rating,[1]; Rate 250 g/ha,100
same,Flatsedge plant response rating,[1]; Rate 500 g/ha,100
same,"Plant response rating, Flatsedge",[1]; Rate 62 g/ha,100
same,"Plant response rating, Flatsedge",[1]; Rate 125 g/ha,100
same,"Plant response rating, Surinam grass","[2]; Rate 62 g/ha, scale 0 to 100",0
same,"Plant response rating, Surinam grass",[2]; [16],0
same,"Plant response rating, Surinam grass",[2]; [17],0
same,"Plant response rating, Surinam grass",[2]; [18],15
same,"Plant response rating, Pigweed","[3]; Rate 62 g/ha, scale 0 to 100",60
same,"Plant response rating, Pigweed",[3]; [17],90
same,"Plant response rating, Pigweed",[3]; [18],100
same,"Plant response rating, Soybean","soybean (Glycine max); Rate 62 g/ha, scale 0 to 100",50
same,"Plant response rating, Soybean",soybean (Glycine max); [17],85
same,"Plant response rating, Soybean",soybean (Glycine max); [18],90
same,"Plant response rating, Goosegrass","[4]; Rate 62 g/ha, scale 0 to 100",10
same,"Plant response rating, Goosegrass",[4]; [17],70
same,"Plant response rating, Goosegrass",[4]; [18],100
same,"Plant response rating, Johnsongrass","[5]; Rate 62 g/ha, scale 0 to 100",0
same,"Plant response rating, Johnsongrass",[5]; [17],0
same,"Plant response rating, Johnsongrass",[5]; [18],0
same,"Plant response rating, Johnsongrass","[5]; rate not given, scale 0 to 100",0
same,"Plant response rating, Kochia","kochia (Kochia scoparia); Rate 62 g/ha, scale 0 to 100",80
same,"Plant response rating, Kochia",kochia (Kochia scoparia); [17],85
same,"Plant response rating, Kochia",kochia (Kochia scoparia); [18],90
same,"Plant response rating, Nutsedge","[6]; Rate 62 g/ha, scale 0 to 100",0
same,"Plant response rating, Nutsedge",[6]; [17],0
same,"Plant response rating, Nutsedge",[6]; [18],0
same,"Plant response rating, Morningglory","[7]; Rate 62 g/ha, scale 0 to 100",100
same,"Plant response rating, Morningglory",[7]; [17],100
same,"Plant response rating, Morningglory",[7]; [18],100
same,"Plant response rating, Crabgrass","[8]; Rate 62 g/ha, scale 0 to 100",0
same,"Plant response rating, Crabgrass",[8]; [17],10
same,"Plant response rating, Crabgrass",[8]; [18],10
same,"Plant response rating, Lambsquarters","[9]; Rate 62 g/ha, scale 0 to 100",75
same,"Plant response rating, Lambsquarters",[9]; [17],95
same,"Plant response rating, Lambsquarters",[9]; [18],100
same,"Plant response rating, Cocklebur","[10]; Rate 62 g/ha, scale 0 to 100",0
same,"Plant response rating, Cocklebur",[10]; [17],85
same,"Plant response rating, Cocklebur",[10]; [18],100
same,"Plant response rating, Corn","corn (Zea mays); Rate 62 g/ha, scale 0 to 100",0
same,"Plant response rating, Corn",corn (Zea mays); [17],0
same,"Plant response rating, Corn",corn (Zea mays); [18],10
same,"Plant response rating, Corn",corn (Zea mays); scale 0 to 100,0
same,"Plant response rating, Foxtail, Giant","[11]; Rate 62 g/ha, scale 0 to 100",0
same,"Plant response rating, Foxtail, Giant",[11]; [17],30
same,"Plant response rating, Foxtail, Giant",[11]; [18],60
same,"Plant response rating, Cupgrass, Woolly","[12]; Rate 62 g/ha, scale 0 to 100",0
same,"Plant response rating, Cupgrass, Woolly",[12]; [17],40
same,"Plant response rating, Cupgrass, Woolly",[12]; [18],45
same,"Plant response rating, Ragweed, Common",[13],90
same,"Plant response rating, Bermudagrass","[14]; Rate 62 g/ha, scale 0 to 100",0
same,"Plant response rating, Bermudagrass",[14]; [16],50
same,"Plant response rating, Bermudagrass",[14]; [17],50
same,"Plant response rating, Bermudagrass",[14]; [18],95
same,"Plant response rating, Velvetleaf","[15]; Rate 62 g/ha, scale 0 to 100",20
same,"Plant response rating, Velvetleaf",[15]; [17],35
same,"Plant response rating, Velvetleaf",[15]; [18],60
same,"Plant response rating, Velvetleaf",[15]; scale 0 to 100,35
